In ChEMBL document CHEMBL1126045, “Alanine series of ovine corticotropin releasing factor (oCRF): a structure-activity relationship study” (J Med Chem, 1992):

Legend:
Pituitary gland cell [1] = assay: In vitro ability of the compound (peptide) to stimulate ACTH release by rat anterior pituitary cells in relative to Ovine corticotropin releasing factor (oCRF) in experiment 2; type: cell-based; design: unit not given here
Pituitary gland cell [2] = assay: In vitro ability of the compound (peptide) to stimulate ACTH release by rat anterior pituitary cells in relative to Ovine corticotropin releasing factor (oCRF) in experiment 1; type: cell-based; design: unit not given here

Row | Molecule | Relative potency (Pituitary gland cell [1]) | Relative potency (Pituitary gland cell [2])
1 | CC[C@H](C)[C@H](NC(=O)[C@H](CC(=O)O)NC(=O)[C@H](CC(C)C)NC(=O)[C@H](CC(C)C)NC(=O)[C@H](CCCCN)NC(=O)[C@H](CCCN=C(N)N)NC(=O)[C@H](CC(N)=O)NC(=O)[C@H](CO)NC(=O)[C@H](Cc1c[nH]cn1)NC(=O)[C@H](C)NC(=O)[C@H](CCC(N)=O)NC(=O)[C@H](CCC(N)=O)NC(=O)[C@H](C)NC(=O)[C@H](CC(C)C)NC(=O)[C@H](CCC(N)=O)NC(=O)[C@H](CC(=O)O)NC(=O)[C@H](C)NC(=O)[C@H](CCCCN)NC(=O)[C@@H](NC(=O)[C@H](CCSC)NC(=O)[C@H](CCC(=O)O)NC(=O)[C@H](CC(C)C)NC(=O)[C@@H](NC(=O)[C@H](CCC(=O)O)NC(=O)[C@H](CCCN=C(N)N)NC(=O)[C@H](CC(C)C)NC(=O)[C@H](CC(C)C)NC(=O)[C@H](Cc1c[nH]cn1)NC(=O)[C@H](Cc1ccccc1)NC(=O)[C@@H](NC(=O)[C@H](CC(C)C)NC(=O)[C@H](CC(=O)O)NC(=O)[C@H](C)NC(=O)[C@H](CO)NC(=O)[C@@H](NC(=O)[C@@H]1CCCN1C(=O)[C@@H]1CCCN1C(=O)[C@H](CCC(=O)O)NC(=O)[C@H](CCC(N)=O)NC(=O)[C@@H](N)CO)[C@@H](C)CC)[C@@H](C)O)C(C)C)[C@@H](C)O)C(=O)N[C@@H](C)C(N)=O | 0.005 | 0.03
2 | CC[C@H](C)[C@H](NC(=O)[C@H](CC(=O)O)NC(=O)[C@H](CC(C)C)NC(=O)[C@H](CC(C)C)NC(=O)[C@H](CCCCN)NC(=O)[C@H](CCCN=C(N)N)NC(=O)[C@H](CC(N)=O)NC(=O)[C@H](CO)NC(=O)[C@H](Cc1c[nH]cn1)NC(=O)[C@H](C)NC(=O)[C@H](CCC(N)=O)NC(=O)[C@H](CCC(N)=O)NC(=O)[C@H](C)NC(=O)[C@H](CC(C)C)NC(=O)[C@H](CCC(N)=O)NC(=O)[C@H](CC(=O)O)NC(=O)[C@H](C)NC(=O)[C@H](CCCCN)NC(=O)[C@@H](NC(=O)[C@H](CCSC)NC(=O)[C@H](CCC(=O)O)NC(=O)[C@H](CC(C)C)NC(=O)[C@@H](NC(=O)[C@H](CCC(=O)O)NC(=O)[C@H](CCCN=C(N)N)NC(=O)[C@H](CC(C)C)NC(=O)[C@H](CC(C)C)NC(=O)[C@H](Cc1c[nH]cn1)NC(=O)[C@H](Cc1ccccc1)NC(=O)[C@@H](NC(=O)[C@H](CC(C)C)NC(=O)[C@H](CC(=O)O)NC(=O)[C@H](CC(C)C)NC(=O)[C@H](C)NC(=O)[C@@H](NC(=O)[C@@H]1CCCN1C(=O)[C@@H]1CCCN1C(=O)[C@H](CCC(=O)O)NC(=O)[C@H](CCC(N)=O)NC(=O)[C@@H](N)CO)[C@@H](C)CC)[C@@H](C)O)C(C)C)[C@@H](C)O)C(=O)N[C@@H](C)C(N)=O | 0.21 | 0.16
3 | H-SQEPPISLDLTFHALREVLEMTKADQLAQQAHSNRKLLDIA-NH2 | 0.001 | 0.001
4 | H-SQEPPISLDLTFHLLREVLAMTKADQLAQQAHSNRKLLDIA-NH2 | 1.6 | 2.8
5 | H-SQEPPISLDLTFHLLREVLEMTKADQAAQQAHSNRKLLDIA-NH2 | 0.38 | 0.6
6 | H-SQEPPISLDLTFHLLREVLEMTKADQLAAQAHSNRKLLDIA-NH2 | 1.4 | 1
7 | H-SQEPPISLDLTFHLLREVLEMTKADQLAQQAHSNRKLADIA-NH2 | 0.0002 | 0.004
